Consider five compounds from publication PMC11036396 (2024).

The test system of test [1] is Trp aptamer (Cy5-labelled, Trp aptamer sensor) (DNA, aptamer) AGCACGTTGGTTAGGTCAGGTTTGGGTTTCGTGC
Description: strand-displacement fluorescence. Particulars: 2.7 mM KCl, 5 mM MgCl2, 500 mM NaCl.

Test [2] shares this test system. Description: strand-displacement fluorescence titration (Langmuir fit). Particulars: 2.7 mM KCl, 5 mM MgCl2, 500 mM NaCl; TAB pH 7.4, 25 °C; displaces CS-10-BHQ2 quencher strand; 0.5 μM aptamer, 1.25 μM CS-10; apparent.
The mark [3] stands for this setting: TAB pH 7.4, displaces CS-10-BHQ2 quencher strand, distinguished from its precursor.

Turning to `COc1ccc2[nH]cc(C[C@H](N)C(=O)O)c2c1`, in test [1] (setting [3]), the binding entry was “yes”. Same read-out and setting: next, `N[C@@H](Cc1c[nH]c2ccc(F)cc12)C(=O)O`: “yes”. Turning to `N[C@@H](Cc1ccccc1)C(=O)O`, the binding entry in test [1] (TAB pH 7.4, 25 °C, CS-10-BHQ2 quencher strand, highest concentration 5 mM) was “no”. Turning to `N[C@@H](Cc1c[nH]c2ccccc12)C(=O)O`, the Ksens in test [2] was 3.3 [2.8–4.6, 95% credible region] mM.

For the compound `N[C@H](Cc1c[nH]c2ccccc12)C(=O)O`, the binding result in test [1] (TAB pH 7.4, 25 °C, displaces CS-10-BHQ2 quencher strand, 5 mM compound) is given as “yes”.
